Test results reported in patent US8802597B2, “Herbicidal pyrimidines” (E I du Pont de Nemours and Company, priority 2003, dated 2014).
Like-named read-outs stand apart in the source and are kept apart here.

Tests used:
Assay in all cases: Test C pre/postemergence
Format in all cases: in vivo
[1] = tested on: yellow nutsedge (Cyperus esculentus); conditions: Cyperus; for pest or weed control at 31 g/ha: 31 g ai/ha; for pest or weed control at 62 g/ha: 62 g ai/ha; for pest or weed control at 125 g/ha: 125 g ai/ha; for pest or weed control at 250 g/ha: 250 g ai/ha
Summary of the method: (§1)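 Pre: seeds planted, sprayed same day. Post: 1- to 4-leaf plants (2–18 cm). Formulation: non-phytotoxic solvent + surfactant. Greenhouse 12–14 d; visual % control vs untreated, 0–100.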

[2] = tested on: velvetleaf (Abutilon theophrasti); conditions: Abutilon theophrasti; for pest or weed control at 31 g/ha: 31 g ai/ha; for pest or weed control at 62 g/ha: 62 g ai/ha; for pest or weed control at 125 g/ha: 125 g ai/ha; for pest or weed control at 250 g/ha: 250 g ai/ha
Summary of the method: as §1

[3] = tested on: woolly cupgrass (Eriochloa villosa); conditions: Eriochloa villosa; for pest or weed control at 31 g/ha: 31 g ai/ha; for pest or weed control at 62 g/ha: 62 g ai/ha; for pest or weed control at 125 g/ha: 125 g ai/ha; for pest or weed control at 250 g/ha: 250 g ai/ha
Summary of the method: as §1

[4] = tested on: goosegrass (Eleusine indica); conditions: Eleusine indica; for pest or weed control at 31 g/ha: 31 g ai/ha; for pest or weed control at 62 g/ha: 62 g ai/ha; for pest or weed control at 125 g/ha: 125 g ai/ha; for pest or weed control at 250 g/ha: 250 g ai/ha
Summary of the method: as §1

[5] = tested on: eastern black nightshade (Solanum ptycanthum); conditions: Solanum, pre-emergence, Preemergence, read-out: Plant response rating, Nightshade
Summary of the method: as §1

[6] = tested on: morningglory (Ipomoea coccinea); conditions: Ipomoea; for pest or weed control at 31 g/ha: 31 g ai/ha; for pest or weed control at 62 g/ha: 62 g ai/ha; for pest or weed control at 125 g/ha: 125 g ai/ha; for pest or weed control at 250 g/ha: 250 g ai/ha
Summary of the method: as §1

[7] = tested on: common ragweed (Ambrosia elatior); conditions: Ambrosia artemisiifolia, post-emergence, Postemergence
Summary of the method: as §1

[8] = post-emergence, Postemergence, scale 0 to 100 (0 no effect, 100 complete control), read-out: Nutsedge, Yellow plant response rating
[9] = pre-emergence, Preemergence, scale 0 to 100, 0 no effect, 100 complete control, read-out: Plant response rating, Nutsedge, Yellow
[10] = pre-emergence, Preemergence, scale 0 to 100, read-out: Plant response rating, Nutsedge, Yellow
[11] = post-emergence, Postemergence, scale 0 to 100 (0 no effect, 100 complete control), read-out: Velvetleaf plant response rating
[12] = pre-emergence, Preemergence, scale 0 to 100, 0 no effect, 100 complete control, read-out: Plant response rating, Velvetleaf
[13] = pre-emergence, Preemergence, scale 0 to 100, read-out: Plant response rating, Velvetleaf
[14] = post-emergence, Postemergence, scale 0 to 100 (0 no effect, 100 complete control), read-out: Cupgrass, Woolly plant response rating
[15] = pre-emergence, Preemergence, scale 0 to 100, 0 no effect, 100 complete control, read-out: Plant response rating, Cupgrass, Woolly
[16] = pre-emergence, Preemergence, scale 0 to 100, read-out: Plant response rating, Cupgrass, Woolly
[17] = post-emergence, Postemergence, scale 0 to 100 (0 no effect, 100 complete control), read-out: Goosegrass plant response rating
[18] = pre-emergence, Preemergence, scale 0 to 100, 0 no effect, 100 complete control, read-out: Plant response rating, Goosegrass
[19] = pre-emergence, Preemergence, scale 0 to 100, read-out: Plant response rating, Goosegrass
[20] = post-emergence, Postemergence, scale 0 to 100 (0 no effect, 100 complete control), read-out: Morningglory plant response rating
[21] = pre-emergence, Preemergence, scale 0 to 100, 0 no effect, 100 complete control, read-out: Plant response rating, Morningglory
[22] = pre-emergence, Preemergence, scale 0 to 100, read-out: Plant response rating, Morningglory

SMILES: COC(=O)c1nc(C(C)C)nc(N)c1Br [Compound 3]
- pest or weed control at 31 g/ha ([1]; post-emergence, Postemergence, read-out: Plant response rating (scale of 0 to 100), Nutsedge, Yellow): 0%
- pest or weed control at 62 g/ha [1, 8]: 0%
- pest or weed control at 125 g/ha [1, 8]: 0%
- pest or weed control at 250 g/ha ([1]; post-emergence, Postemergence, scale 0 to 100, read-out: Plant response rating, Nutsedge, Yellow): 0%
- pest or weed control at 31 g/ha [1, 9]: 0%
- pest or weed control at 62 g/ha [1, 9]: 0%
- pest or weed control at 125 g/ha [1, 10]: 0%
- pest or weed control at 250 g/ha [1, 10]: 0%
- pest or weed control at 31 g/ha ([2]; post-emergence, Postemergence, read-out: Plant response rating (scale of 0 to 100), Velvetleaf): 25%
- pest or weed control at 62 g/ha [2, 11]: 55%
- pest or weed control at 125 g/ha [2, 11]: 55%
- pest or weed control at 250 g/ha ([2]; post-emergence, Postemergence, scale 0 to 100, read-out: Plant response rating, Velvetleaf): 70%
- pest or weed control at 31 g/ha [2, 12]: 0%
- pest or weed control at 62 g/ha [2, 12]: 0%
- pest or weed control at 125 g/ha [2, 13]: 20%
- pest or weed control at 250 g/ha [2, 13]: 35%
- pest or weed control at 31 g/ha ([3]; post-emergence, Postemergence, read-out: Plant response rating (scale of 0 to 100), Cupgrass, Woolly): 0%
- pest or weed control at 62 g/ha [3, 14]: 0%
- pest or weed control at 125 g/ha [3, 14]: 0%
- pest or weed control at 250 g/ha ([3]; post-emergence, Postemergence, scale 0 to 100, read-out: Plant response rating, Cupgrass, Woolly): 0%
- pest or weed control at 31 g/ha [3, 15]: 0%
- pest or weed control at 62 g/ha [3, 15]: 0%
- pest or weed control at 125 g/ha [3, 16]: 0%
- pest or weed control at 250 g/ha [3, 16]: 0%
- pest or weed control at 31 g/ha ([4]; post-emergence, Postemergence, read-out: Plant response rating (scale of 0 to 100), Goosegrass): 0%
- pest or weed control at 62 g/ha [4, 17]: 0%
- pest or weed control at 125 g/ha [4, 17]: 0%
- pest or weed control at 250 g/ha ([4]; post-emergence, Postemergence, scale 0 to 100, read-out: Plant response rating, Goosegrass): 0%
- pest or weed control at 31 g/ha [4, 18]: 0%
- pest or weed control at 62 g/ha [4, 18]: 0%
- pest or weed control at 125 g/ha [4, 19]: 0%
- pest or weed control at 250 g/ha [4, 19]: 0%
- pest or weed control at 31 g/ha ([5]; 31 g ai/ha, scale 0 to 100, 0 no effect, 100 complete control): 0%
- pest or weed control at 62 g/ha ([5]; 62 g ai/ha, scale 0 to 100, 0 no effect, 100 complete control): 0%
- pest or weed control at 125 g/ha ([5]; 125 g ai/ha, scale 0 to 100): 0%
- pest or weed control at 250 g/ha ([5]; 250 g ai/ha, scale 0 to 100): 20%
- pest or weed control at 31 g/ha ([6]; post-emergence, Postemergence, read-out: Plant response rating (scale of 0 to 100), Morningglory): 45%
- pest or weed control at 62 g/ha [6, 20]: 60%
- pest or weed control at 125 g/ha [6, 20]: 65%
- pest or weed control at 250 g/ha ([6]; post-emergence, Postemergence, scale 0 to 100, read-out: Plant response rating, Morningglory): 75%
- pest or weed control at 31 g/ha [6, 21]: 0%
- pest or weed control at 62 g/ha [6, 21]: 0%
- pest or weed control at 125 g/ha [6, 22]: 20%
- pest or weed control at 250 g/ha [6, 22]: 35%
- pest or weed control at 31 g/ha ([7]; 31 g ai/ha, read-out: Plant response rating (scale of 0 to 100), Ragweed): 55%
- pest or weed control at 62 g/ha ([7]; 62 g ai/ha, scale 0 to 100 (0 no effect, 100 complete control), read-out: Ragweed plant response rating): 75%
